The results in this text go back to patent publication US20260199485A1, “RNA DEGRADERS AND USES THEREOF” (Arrakis Therapeutics, Inc., priority 2022, published 2026).

In one test the target is T1, CNOT7 (Homo sapiens, UniProt Q9UIV1).
T1 construct: biotin (biotinylated); purchased Ichor Life Sciences
The experiment in a line: Binding of compounds to CNOT7 by surface plasmon resonance (SPR). On the procedure: Surface plasmon resonance (SPR) was used to evaluate the binding of compounds to CNOT7. Experiments were performed on a Biacore 8K (Cytiva) with a running buffer consisting of 20 mM HEPES pH7.5, 100 mM KCl, 3 mM MgCl2, 1 mM TCEP, 0.05% tween-20, 2% DMSO. Briefly, biotinylated CNOT7 (Ichor Life Sciences) at a concentration of 70 μg/ml was immobilized to a streptavidin coated chip (Cytiva sensor chip SA) for 1200 sec at a flow rate of 5 μl/min (typical immobilization level 7,500 RU). For compound binding experiments, various concentrations of analyte were flowed over the chip with 120 sec association phase, 120 sec dissociation phase, at a flow rate of 30 ul/min and collection rate of 10 Hz. Reference channel subtraction and solvent correction were applied to all sensograms prior to data analysis. Sensograms were fit to 1:1 steady state affinity model. FIGS. 3 and 4 show the binding of exemplary compounds and the AMP control (a known CNOT7 active site binder) at various concentrations to CNOT7.
In general terms: In SPR one partner is held on a chip, and binding of the other changes the refractive index at the surface.

Test [1] concerns the target T2, CNOT7-FKBP12(F36V) fusion protein (Homo sapiens, UniProt Q9UIV1).
T2 construct: expressed in transfected cells; host or cells: H1299 cells; anti-HA immunoprecipitation, HA-peptide elution
The experiment in a line: Biochemical gel assay: degradation/deadenylation of RNA substrate with immunoprecipitated CNOT7-FKBP12(F36V). Particulars: for Activity by gel: Table 8, degradation of RNA, compared to DMSO control. Also noted: key to Activity by gel: +: an activity observed as compared to DMSO control; −: no activity observed as compared to DMSO control. The source says: Biochemical reporter systems were generated to evaluate the ability of CNOT7 binding compounds to accelerate the degradation of RNA by CNOT7. […] Generation of the target RNA was described in the previous experiment. […] The bifunctional molecules consist of Compound 1-4 and the following rSM:
which binds to the RNA sequence of AST-X, or the rSM linked to a tag that binds CNOT7-FKBPV. Specifically, the tag is compound AP1867 (CAS NO.: 195514-23-9), a known binder of FKBPV, resulting in the rSM-AP1867tag. The CNOT7-FKBPV is obtained by immunoprecipitation of cell engineered to express CNOT-FKBPV. Specifically, H1299 cells were transfected with plasmid expressing HA-tagged CNOT7-FKBP12(F36V) fusion protein. After 24 hours, cells were pelleted and lysed in the following lysis buffer: 20 mM HEPES pH 7.3, 0.2 mM EGTA, 10% glycerol, 0.1 mM DTT with cOmplete EDTA-free protease inhibitors (Millipore). After freeze-thawing, NaCl was added to a concentration of 400 mM and lysates were pelleted to clear cellular debris. Cleared lysate was adjusted to buffer conditions containing 0.1% NP-40 and 150 mM NaCl before being applied to Pierce Anti-HA magnetic beads (ThermoFisher) at 4° C. for 2-20 hours with end-over-end rotation. After washing, bound protein was competitively eluted with 2 mg/mL HA peptide (ThermoFisher) in activity assay buffer at 4° C. for 2-20 hours. It should be appreciated that this immunoprecipitation protocol will result in tagged CNOT7 that will likely have other components of the CCR4-NOT complex bound as well.
The reactions were incubated at 37° C., with specified timepoints removed from the reaction and combined with 2× formamide RNA loading buffer with 10 mM EDTA before boiling for 3 minutes to quench the reaction. Samples were run on a pre-warmed 15% TBE-Urea polyacrylamide gel at 180V for 90 minutes and then imaged using Cy2 settings on the Azure Biosystems 600 Imaging System. […] It should be noted that the CCR4-NOT complex includes proteins other than CNOT7, for instance CNOT6, that have deadenylation and/or exonuclease activity.
These findings were confirmed in the biochemical assay described above. […] In contrast, literature compounds that are active site binders, compounds A, B and C, structure depicted on the right-hand side, do interfere with the ability of CNOT7 to degrade RNA (See center panel of gel).
Heterobifunctional molecules were generated by conjugating the rSM depicted above, which binds RNA with an AST-X sequence, to AP1867 (a small molecule binder of FKBP12(F36V)), resulting in rSM-AP1867tag. In addition, I-243 was conjugated to the rSM resulting in compounds 1-329 and I-371, depicted in FIG. 17. Fluorescently labeled RNA substrates were refolded in the presence of Mg^2+ and incubated 10, 25, or 50 μM doses of heterobifunctional molecules for 30 minutes at room temperature before the enzymatic reaction was initiated with the elution fraction (containing CNOT7-FKBP12(F36V) fusion protein) from the immunoprecipitation protocol above. The reactions were incubated at 37° C., with specified timepoints removed from the reaction and combined with 2× formamide RNA loading buffer with 10 mM EDTA before boiling for 3 minutes to quench the reaction. Samples were run on a pre-warmed 15% TBE-Urea polyacrylamide gel at 180V for 120 minutes and then imaged using Cy2 settings on the Azure Biosystems 600 Imaging System (See FIGS. 18, 19A and 19B). In addition, for 1-371 and the control rSM-AP1867tag, the disappearance of the full-length substrate band was quantified using ImageJ and plotted over time (FIG. 19B).

Setting [2] is: dissociation constant by SPR, Table 7.

T1 sequence (Q9UIV1 whole entry): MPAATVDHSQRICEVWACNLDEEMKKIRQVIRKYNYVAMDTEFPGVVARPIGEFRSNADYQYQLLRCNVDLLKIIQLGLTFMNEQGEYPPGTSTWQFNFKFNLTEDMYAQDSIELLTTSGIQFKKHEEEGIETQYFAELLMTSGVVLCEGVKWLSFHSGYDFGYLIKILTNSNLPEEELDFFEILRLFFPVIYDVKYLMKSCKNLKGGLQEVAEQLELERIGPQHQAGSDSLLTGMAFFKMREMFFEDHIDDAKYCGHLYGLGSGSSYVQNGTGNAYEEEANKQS
T2 sequence (Q9UIV1 with tags, fused parts or gaps): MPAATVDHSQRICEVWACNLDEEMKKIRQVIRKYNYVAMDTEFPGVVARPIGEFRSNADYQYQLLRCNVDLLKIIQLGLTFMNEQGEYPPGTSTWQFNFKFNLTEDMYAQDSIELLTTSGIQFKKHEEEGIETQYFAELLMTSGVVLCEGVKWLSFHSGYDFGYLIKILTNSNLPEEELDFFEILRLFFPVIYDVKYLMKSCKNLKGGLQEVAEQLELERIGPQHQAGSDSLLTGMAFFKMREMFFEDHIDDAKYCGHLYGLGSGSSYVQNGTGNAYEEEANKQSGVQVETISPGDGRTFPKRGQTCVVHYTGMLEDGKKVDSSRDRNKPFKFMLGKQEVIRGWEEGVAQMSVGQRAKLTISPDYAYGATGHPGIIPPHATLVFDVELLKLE

Broadly, the Kd is the free concentration of one partner at which half of the binding sites on the other are occupied at equilibrium, for simple one-to-one binding. For the molecule `COc1ccc(C(C)NC(=O)C(COCCOCCOCCc2cn(COc3ccc(NC(=O)Nc4nc(CC(=O)N5CCN(C)CC5)cs4)cc3)nn2)Sc2nc(=O)[nH]cc2C)c(F)c1` (centres unmarked) [Compound I-329], the Kd at CNOT7 (Table 6, dissociation constant for CNOT7 by SPR) is 1 to 25 µM; at CNOT7 (setting [2]) it was 1 to 25 µM. Besides, the Activity by gel entry in test [1] is listed as “−”. Moreover, the “relative potency in biochemical assay” value in test [1] (bait conjugated to rSM (Example 17, FIG. 18)) is “more potent”.

Consider `COc1ccc2c(c1)C[C@@H](COCCOCCOCCOCc1cn(CCOc3ccc(NC(=O)Nc4nc(CC(=O)N5CCN(C)CC5)cs4)cc3)nn1)N(C(=O)CSc1nc(=O)[nH]cc1C)C2` [Compound I-338], for which, on CNOT7 (setting [2]), the Kd is > 25 µM. Further, in test [1], the Activity by gel result is on record as “−”.

With `COc1ccc2c(c1)C[C@H](COCCOCCOCCOCc1cn(CCOc3ccc(NC(=O)Nc4nc(CC(=O)N5CCN(C)CC5)cs4)cc3)nn1)N(C(=O)CSc1nc(=O)[nH]cc1C)C2` [Compound I-339], the Kd at CNOT7 (setting [2]) is > 25 µM. Also, in test [1], the Activity by gel result is recorded as “+”.

On CNOT7 (setting [2]), `COc1ccc([C@@H](C)NC(=O)[C@@H](COCCOCCOCc2cn(CCOc3ccc(NC(=O)Nc4nc(CC(=O)N5CCN(C)CC5)cs4)cc3)nn2)Sc2nc(=O)[nH]cc2Cl)c(F)c1` [Compound I-372] had a Kd of 1 to 25 µM. In addition, in test [1], the Activity by gel entry is “+”.

Consider `COc1ccc([C@@H](C)NC(=O)[C@H](COCCOCCOCc2cn(CCOc3ccc(NC(=O)Nc4nc(CC(=O)N5CCN(C)CC5)cs4)cc3)nn2)Sc2nc(=O)[nH]cc2Cl)c(F)c1` [Compound I-373], for which, at CNOT7 (setting [2]), the Kd is > 25 µM. The Activity by gel result in test [1] is reported as “+”.

Take `COc1ccc(C(C)NC(=O)C(CCOCCOCCOCCn2cc(CCc3ccc(NC(=O)Nc4nc(CC(=O)N5CCN(C)CC5)cs4)cc3)nn2)Sc2nc(=O)[nH]cc2C)c(F)c1` (centres unmarked) [Compound I-382]: in test [1], the Activity by gel entry is recorded as “+”.

Molecule `COc1ccc(C(C)NC(=O)C(CCOCCOCCOCCn2cc(COCCOCCOc3ccc(NC(=O)Nc4nc(CC(=O)N5CCN(C)CC5)cs4)cc3)nn2)Sc2nc(=O)[nH]cc2Cl)c(F)c1` (centres unmarked) [Compound I-395] had a Kd at CNOT7 (setting [2]) of 1 to 25 µM. In test [1], the Activity by gel entry was “+ (weak)”.

Turning to `COc1ccc([C@@H](C)NC(=O)[C@H](CCOCCOCCOCCn2cc(COCCOCCOCCOCCOc3ccc(NC(=O)Nc4nc(CC(=O)N5CCN(C)CC5)cs4)cc3)nn2)Sc2nc(=O)[nH]cc2Cl)c(F)c1` [Compound I-398], the Activity by gel entry in test [1] is “−”.

On to `COc1ccc2c(c1)CC(COCCOCCOCCOCc1cn(CCOc3ccc(NC(=O)Nc4nc(CC(=O)N5CCN(C)CC5)cs4)cc3)nn1)N(C(=O)CSc1nc(=O)[nH]cc1C)C2` (centres unmarked) [Compound I-451], for which the Kd at CNOT7 (setting [2]) was > 25 µM. Moreover, the Activity by gel result in test [1] was “−”.

On to `COc1ccc(CNC(=O)[C@H](COCCOCCOCCn2cc(COCCOCCOc3ccc(NC(=O)Nc4nc(CC(=O)N5CCN(C)CC5)cs4)cc3)nn2)Sc2nc(=O)[nH]cc2C)cc1` [Compound I-469], for which the Kd on CNOT7 (setting [2]) was 1 to 25 µM. Moreover, the Activity by gel entry in test [1] is “−”.

Molecule `COc1ccc(CNC(=O)[C@@H](COCCOCCOCCn2cc(COCCOCCOc3ccc(NC(=O)Nc4nc(CC(=O)N5CCN(C)CC5)cs4)cc3)nn2)Sc2nc(=O)[nH]cc2C)c(F)c1` [Compound I-473] displayed a Kd at CNOT7 (setting [2]) of 1 to 25 µM. Moreover, the Activity by gel entry in test [1] is on record as “−”.

In the case of `COc1ccc(CNC(=O)[C@H](COCCOCCOCCn2cc(COCCOCCOc3ccc(NC(=O)Nc4nc(CC(=O)N5CCN(C)CC5)cs4)cc3)nn2)Sc2nc(=O)[nH]cc2C)c(F)c1` [Compound I-474], on CNOT7 (setting [2]), the Kd is 1 to 25 µM. For the same molecule, the Activity by gel entry in test [1] is on record as “−”.

In the case of `COc1ccc(CNC(=O)[C@@H](COCCOCCOCCn2cc(COCCOCCOCCOCCOc3ccc(NC(=O)Nc4nc(CC(=O)N5CCN(C)CC5)cs4)cc3)nn2)Sc2nc(=O)[nH]cc2C)cc1` [Compound I-475], the dissociation constant (Kd) on CNOT7 (setting [2]) lay within 1 to 25 µM. Further, the Activity by gel entry in test [1] is “−”.

On CNOT7 (setting [2]), `COc1ccc(CNC(=O)[C@H](COCCOCCOCCn2cc(COCCOCCOCCOCCOc3ccc(NC(=O)Nc4nc(CC(=O)N5CCN(C)CC5)cs4)cc3)nn2)Sc2nc(=O)[nH]cc2C)cc1` [Compound I-476] had a Kd of 1 to 25 µM. Also, in test [1], the Activity by gel entry is “−”.

Regarding `COc1ccc(CNC(=O)[C@H](COCCOCCOCCn2cc(COCCOCCOCCOCCOc3ccc(NC(=O)Nc4nc(CC(=O)N5CCN(C)CC5)cs4)cc3)nn2)Sc2nc(=O)[nH]cc2C)c(F)c1` [Compound I-478], the dissociation constant (Kd) on CNOT7 (setting [2]) lay within 1 to 25 µM. The Activity by gel entry in test [1] was “+”.

Turning to `COc1ccc2c(c1)C[C@@H](COCCOCCOCCOCCn1cc(COCCOCCOc3ccc(NC(=O)Nc4nc(CC(=O)N5CCN(C)CC5)cs4)cc3)nn1)C(C(=O)CSc1nc(=O)[nH]cc1C)C2` (some centres unmarked) [Compound I-495], the Kd on CNOT7 (setting [2]) is > 25 µM. Besides, the Activity by gel entry in test [1] is reported as “−”.

`COc1ccc2c(c1)C[C@@H](COCCOCCOCCOCCn1cc(COCCOCCOCCOCCOc3ccc(NC(=O)Nc4nc(CC(=O)N5CCN(C)CC5)cs4)cc3)nn1)N(C(=O)CSc1nc(=O)[nH]cc1C)C2` [Compound I-497]: the Kd on CNOT7 (setting [2]) was > 25 µM. Also, the Activity by gel result in test [1] is “+ (weak)”.

Consider `COc1ccc([C@@H](C)NC(=O)[C@H](CCC(=O)N(C)Cc2cn(CCOc3ccc(NC(=O)Nc4nc(CC(=O)N5CCN(C)CC5)cs4)cc3)nn2)Sc2nc(=O)[nH]cc2C)c(F)c1` [Compound I-505], for which the Activity by gel entry in test [1] is reported as “−”.

As for `COc1ccc([C@@H](C)NC(=O)[C@@H](CCC(=O)N(C)Cc2cn(CCOc3ccc(NC(=O)Nc4nc(CC(=O)N5CCN(C)CC5)cs4)cc3)nn2)Sc2nc(=O)[nH]cc2C)c(F)c1` [Compound I-506], the Activity by gel result in test [1] was “−”.

In the case of `COc1ccc(C(C)NC(=O)C(CCC(=O)N(C)c2cccc(OCCOc3ccc(NC(=O)Nc4nc(CC(=O)N5CCN(C)CC5)cs4)cc3)c2)Sc2nc(=O)[nH]cc2C)c(F)c1` (centres unmarked) [Compound I-515], the Activity by gel result in test [1] is “−”.

`Cc1c[nH]c(=O)nc1SCC(=O)NCc1ccc(OCCOCCOCCOCCn2cc(COc3ccc(NC(=O)Nc4nc(CC(=O)N5CCN(C)CC5)cs4)cc3)nn2)cc1` [Compound I-533]: the Activity by gel result in test [1] is “−”.
